# Where a name gives a salt, the structure may show the parent alone. Read-outs that look alike come from different tables or passages of the source.
# Experiments:
# [1] = Inertness of samarium complex versus pH; assay type: physicochemical; conditions: Sm
# Experimental: (§1) A disposable 10 ml plastic (Biorad) column was filled with 1 to 2 ml of water-swelled Sephadex™ C-25 cation exchange resin. The water was pressure eluted to the top of the resin. Fifteen μl of the complex (or more if counts were low) were added to the top of the resin. This was followed by 2 ml of 4:1 (V:V) isotonic saline:conc. ammonium hydroxide solution as an eluent which was allowed to drip into a counting tube. This was also pressure eluted to the top of the resin. An additional 2 ml of the eluent were added and the column pressure eluted to remove all liquid. The dried resin was then placed in a third counting tube and the three tubes counted on a NaI well counter using a Canberra multichannel analyzer linked to a computer. The percent complex was determined by dividing the number of counts in the two elutions by the total counts in the elutions plus the column, all times 100. By this method, uncomplexed yttrium was retained on the column.
# One portion was treated with 1-2 μl portions of 0.1N hydrochloric acid until the pH was lowered and the other portion was treated with 0.1N sodium hydroxide to bring the pH up. The complexes were allowed to set for 5-10 minutes at each pH change, then they were sampled to determine the percent complexation at that pH by the method described for Examples 16 through 33.
# One portion was treated with 1-2 μl portions of 1.0N hydrochloric acid until the pH was lowered and the other portion was treated with 0.1N, 1.0N and 50 weight % sodium hydroxide to bring the pH up. The complexes were allowed to set for about 5 minutes at each pH change, then they were sampled to determine the percent complexation at that pH by the method described for Examples 16 through 33.
# [2] = Percent complex determination, samarium complexes (Sephadex C-25 cation exchange); assay type: physicochemical; conditions: for % Complex, Sm / % Complex (10:1), Sm: samarium; for % Complex, Sm: ligand/metal ratio about 50:1 (** footnote); for % Complex (10:1), Sm: ligand/metal 10:1
# Experimental: as §1, with “100.” for “100. By this method, uncomplexed yttrium was retained on the column.”
# Percent complex determination was made in the same manner as for the yttrium complex.
# [3] = rat, in vivo, 120 min; for % Injected Dose in Liver: iv
# Experimental: (§2) Also samarium was injected as samarium chloride in unchelated form.
# (§3) These animals were placed in cages and fed water and food ad libitum. The animals were acclimated for at least five days before use. Prior to injection of complex, the animals were placed under a heat lamp (15 to 30 minutes) to dilate the tail vein. Then, the animal was placed in a restraining cage, the tail cleaned with an alcohol swipe, and the animal injected (50 to 200 μl) via the tail vein. After injection, the animal was placed in another cage for two hours after which time the animal was sacrificed by cervical dislocation. The animal was then dissected, the parts rinsed with deionized H2 O , patted dry, and weighed into a tared counting vial. Whatever size of injection was made, at least three standards of the same material were prepared and counted with the animal parts.
# (§4) Complexes were prepared by mixing a solution of ligand and metal then adjusting the pH to 7-8. The amount of metal that was complexed to ligand was determined by cation exchange chromatography. Free metal was retained by the resin, metal in the form of a complex was not.
# (§5) One-hundred μl of the complexes were injected into the tail vein of three Sprague Dawley rats. Two hours after injection, the rats were killed by cervical dislocation and samples of tissues were taken. The tissues were weighed and the amount of radiation in each tissue determined by measuring the number of counts using a NaI well counter and comparing them to standards. […] The amount in bone was 25 times the % dose in a femur. The examples below differ in the ligand, amount of ligand and amount of metal used. Non-radioactive metal was used to obtain the desired ligand to metal ratios and tracer radioactive metal was used to obtain the biodistribution.
# [4] = Percent complex determination, yttrium complexes (Sephadex C-25 cation exchange); assay type: physicochemical; conditions: for % Complex (10:1), Y: ligand/metal 10:1, pH 7.4
# Experimental: Complexes were made by preparing a 0.0003M yttrium solution in water. (YCl3.6H2 O, 303.26 g/mole; Y(OAc)3, 12.1% H2 O). Radioactive YCl3 (Oakridge National Laboratories) was added to give the desired number of counts. Ten μl of ligand solution (at 0.03M) were added to 990 μl of the Y solution, giving a ligand-to-metal ratio of 1:1. (Ten times the amount of ligand solution was used for a 10:1 ligand to metal ratio.) The pH was then adjusted to 7.4 using microliter quantities of hydrochloric acid or sodium hydroxide. The solution was then tested for the amount of complexed yttrium using the cation exchange method given below.
# as §1
# [5] = patients with metastatic bone lesions; cited from earlier work
# [6] = Complex study: percent yttrium complex after addition of excess metal (lability); assay type: physicochemical; conditions: metal/ligand molar ratio 500, one-half hour after metal addition
# Experimental: as §1
# The 1:1 complex of yttrium with 1-(p-aminobenzyl)diethylenetriaminepentaacetic acid (ABDTPA), a well known bifunctional chelant used in the literature, and with the ligand of Example 2 (Now Ex. XVI) and Example 12 (now Ex. XVII) were prepared using the techniques described earlier. Several 100 microliter aliquots were then withdrawn into separate centrifuge tubes. Excess metal was added such that the total volume change is minimized and the time noted. One-half hour after metal addition, the percent complex was determined by the Sephadex™ C-25 method and this was compared to the original amount of complex. The percent complex versus added metal gives an indication as to the lability of the ligand-metal complex. Results are given below and are compared to the EDTA-yttrium complex.
# [7] = In vivo biodistribution of chelates in rats (% dose in organs); conditions: rat, 2 hours after i.v. injection
# Experimental: as §2, §3, §4, §5
molecule,measurement,setting,value
"Nc1ccc(OCC(=O)O)c(C(C(=O)O)N(CCN(CCN(CC(=O)O)CC(=O)O)CC(=O)O)CC(=O)O)c1 (centres unmarked) [Example 8, 2-[{2-[(2-{[BIS(CARBOXYMETHYL)]-AMINO}ETHYL)(CARBOXYMETHYL)AMINO]ETHYL}(CARBOXYMETHYL)AMINO]-2-[5-AMINO-2-(CARBOXYMETHYLOXY)PHENYL]ETHANOIC ACID]",% Complexed,"[1]; pH 1, about 5 minutes",91%
same,% Complexed,"[1]; pH 2, about 5 minutes",88%
same,% Complexed,"[1]; pH 3, about 5 minutes",92%
same,% Complexed,"[1]; pH 5, about 5 minutes",96%
same,% Complexed,"[1]; pH 7, about 5 minutes",96%
same,% Complexed,"[1]; pH 9, about 5 minutes",99%
same,% Complexed,"[1]; pH 12, about 5 minutes",98%
same,% Complexed,"[1]; pH 13, about 5 minutes",99%
same,"percent complexation, Sm","[2]; as prepared, pH adjusted to about 7",96%
same,"% Complex, Sm",[2],> 99%
"Nc1ccc(O)c(C(NCCNC(C(=O)O)c2cc(N)ccc2O)C(=O)O)c1 (centres unmarked) [Example X, ethylenediaminedi(2-hydroxy-5-aminophenyl)acetic acid, reference compound]",% Injected Dose in Liver,[3],24%
CC(=O)Nc1cc(CN(CCN(CC(=O)O)CC(=O)O)CC(=O)O)c(O)c(CN(CCN(CC(=O)O)CC(=O)O)CC(=O)O)c1 [Example 11],"% Complex (10:1), Y",[4],99%
same,"% Complex, Y",[4]; ligand/metal ratio about 1:1 (* footnote),98%
[89Sr] [Strontium-89],blood levels,[5],high blood levels
same,lesion to normal bone ratios,[5],low lesion to normal bone ratios
"CC(=O)Nc1ccc(OCC(=O)O)c(C(C(=O)O)N(CCN(CC(=O)O)CC(=O)O)CC(=O)O)c1 (centres unmarked) [Example 2, 2-[(2-{[bis(carboxymethyl)]amino}ethyl)(carboxymethyl)amino]-2-[5-acetamido-2-(carboxymethyloxy)phenyl]ethanoic acid]",% Complex,[6],75%
same,% Injected Dose in Liver,[3],0.22%
same,"% Complex (10:1), Y",[4],> 99%
same,"% Complex (10:1), Sm",[2],> 99%
2-[(2-[(2-[(2-{[BIS(CARBOXYMETHYL)]AMINO}ETHYL)(CARBOXYMETHYL)AMINO]ETHYL)(CARBOXYMETHYL)AMINO]ETHYL)(CARBOXYMETHYL)AMINO]-2-[5-ACETAMIDO-2-(CARBOXYMETHYLOXY)PHENYL]ETHANOIC ACID AND 2[(2-[(2-{[BIS(CARBOXYMETHYL)]AMINO}ETHYL)(CARBOXY-METHYL)AMINO]ETHYL)(2-{[BIS(CARBOXYMETHYL)]AMINO}-ETHYL)AMINO]-2-[5-ACETAMIDO-2-(CARBOXYMETHYLOXY)PHENYL]-ETHANOIC ACID [Example 9],% Injected Dose in Liver,"[7]; Sm complex, ligand/metal 10:1",2.8%
same,"% Complex (10:1), Sm",[2],> 99%
2-[BIS(2-{[(BIS(CARBOXYMETHYL)]AMINO}ETHYL)AMINO]-2-[5-AMINO-2-(CARBOXYMETHYLOXY)PHENYL]ETHANOIC ACID AND 2-[{2-[(2-{[BIS(CARBOXYMETHYL)]AMINO}ETHYL)(CARBOXYMETHYL)AMINO]ETHYL}(CARBOXYMETHYL)AMINO]-2-[5-AMINO-2-(CARBOXYMETHYLOXY)-PHENYL]ETHANOIC ACID [Example 7],% Complexed,"[1]; pH 1, 5-10 minutes",98%
same,% Complexed,"[1]; pH 2, 5-10 minutes",100%
same,% Complexed,"[1]; pH 3, 5-10 minutes",100%
same,% Complexed,"[1]; pH 4, 5-10 minutes",100%
same,% Complexed,"[1]; pH 5, 5-10 minutes",100%
same,% Complexed,"[1]; pH 7, 5-10 minutes",100%
same,% Complexed,"[1]; pH 9, 5-10 minutes",100%
same,% Complexed,"[1]; pH 11, 5-10 minutes",100%
same,% Complexed,"[1]; pH 13, 5-10 minutes",100%
same,percent Sm complexed,"[2]; as prepared, pH adjusted to about 7.5",100%
same,"% Complex, Sm",[2],96%
"Nc1ccc(OCC(=O)O)c(C(C(=O)O)N(CCN(CC(=O)O)CC(=O)O)CC(=O)O)c1 (centres unmarked) [Example 3, 2-[(2-{[BIS(CARBOXYMETHYL)]AMINO}ETHYL)(CARBOXYMETHYL)AMINO]-2-[5-AMINO-2- (CARBOXYMETHLOXY)PHENYL]ETHANOIC ACID, PENTA SODIUM SALT]",% Injected Dose in Liver,[3],0.22%
same,"% Complex (10:1), Y",[4],> 99%
"Nc1ccc(O)c(C(C(=O)O)N(CCN(CC(=O)O)CC(=O)O)CC(=O)O)c1 (centres unmarked) [Example 5, 2-[(2-{[BIS(CARBOXYMETHYL)]AMINO}ETHYL)(CARBOXYMETHYL)AMINO]-2-(5-AMINO-2- HYDROXYPHENYL)ETHANOIC ACID]",% Injected Dose in Liver,[3],0.38%
same,"% Complex (10:1), Y",[4],99%
"CC(=O)Nc1ccc(O)c(CN(CCN(CC(=O)O)Cc2cc(NC(C)=O)ccc2O)CC(=O)O)c1 [Example U, N,N'-DI(2-HYDROXY, 5-ACETAMIDOBENZYL)ETHYLENEDIAMINE-N,N'-DIACETIC ACID, reference compound]",% Injected Dose in Liver,"[7]; Sm complex, comparative, ligand/metal ratio not stated",12%
"CC(=O)Nc1ccc(O)c(C(C(=O)O)N(CC#N)CCN(CC(=O)O)CC(=O)O)c1 (centres unmarked) [Example 4, 2-[(2-{[bis(carboxymethyl)]amino}ethyl)(cyanomethyl)amino]-2-(5-acetamido-2-hydroxyphenyl)ethanoic acid]",% Injected Dose in Liver,[3],1.4%
same,"% Complex (10:1), Y",[4],> 99%
"CC(=O)Nc1ccc(O)c(C(NCCN(CC(=O)O)CC(=O)O)C(=O)O)c1 (centres unmarked) [Example 1, 2-[(2-{[bis(carboxymethyl)]amino}ethyl)amino]-2-(5-acetamido-2-hydroxyphenyl)ethanoic acid]",% dose in the blood,[3],0.57%
same,% dose in the bone,[3],56.1%
same,% dose in the muscle,[3],0.78%
same,% dose in the spleen,[3],0.03%
same,% Injected Dose in Liver,[3],0.87%
same,"% Complex (10:1), Y",[4],98%
"[Cl][Sm]([Cl])[Cl] [SmCl3, samarium chloride, reference compound]",% Injected Dose in Liver,[7]; samarium chloride in unchelated form,39%
"CC(=O)Nc1cc(CN(CCN(CC(=O)O)CC(=O)O)CC(=O)O)c(O)c(CN(CC(=O)O)CC(=O)O)c1 [Example 15, 2-({[BIS(CARBOXYMETHYL)]AMINO}METHYL)-6-{[({[BIS(CARBOXYMETHYL)]AMINO}ETHYL)(CARBOXYMETHYL)AMINO]METHYL}-4-(ACETAMIDO)PHENOL]",% Injected Dose in Liver,[3],0.37%
same,"% Complex (10:1), Y",[4],99%
2-[bis(2-{[(bis(carboxymethyl)]amino}ethyl)amino]-2-[5-acetamido-2-(carboxymethyloxy)phenyl]ethanoic acid and 2-[{2-[(2-{[bis(carboxymethyl)]amino}ethyl)(carboxymethyl)amino]ethyl}(carboxymethyl)amino]-2-[5-acetamido-2-(carboxymethyloxy)-phenyl]ethanoic acid [Example 6],% Injected Dose in Liver,"[7]; Sm complex, ligand/metal 10:1",0.38%
same,"% Complex (10:1), Sm",[2],> 99%

# Reference: patent publication US5696239A (The Dow Chemical Company, priority 1995, dated 1997)
